# Assay results: patent US7790887B2, “Macrolide compound in solid form, process for preparation thereof, and pharmaceutical composition containing the same” (Eisai R&D Management Co., Ltd., priority 2007, dated 2010)
# Test: Comparison of solubility: time required for complete dissolution of solid forms in pH 5.0 buffer
# Assay type: physicochemical
# Details: 25 mM potassium acetate buffer solution (pH 5.0), room temperature, concentration of 5 mg/mL, shaken at about 100 rpm
# Method: (Comparison of Solubility)
# Next, the length of time required to dissolve about […] of the solid forms of formula (I) compound at room temperature in a pH 5.0 acetic acid buffer solution were measured.
# After adding, at room temperature, a 25 mM potassium acetate buffer solution (pH 5.0) to, respectively, 10 mg of the white crystals prepared in Example 7, 10 mg of the amorphous powder prepared in Example 10, and 5 mg of the amorphous mass prepared in Example 11 in order to make a concentration of 5 mg/mL in each sample, the length of time required for complete dissolution under shaken at about 100 rpm was measured.
row,time required for dissolution,SMILES
1,about 215 seconds,"CCC(O)C(C)C1OC1CC(C)(O)/C=C/C=C(\C)C1OC(=O)CC(O)CCC(C)(O)C(OC(=O)N2CCN(C3CCCCCC3)CC2)/C=C/C1C (stereo not drawn) [Amorphous mass, (8E,12E,14E)-7-{(4-cycloheptylpiperazin-1-yl)carbonyl}oxy-3,6,16,21-tetrahydroxy-6,10,12,16,20-pentamethyl-18,19-epoxytricosa-8,12,14-trien-11-olide]"
2,about 10 seconds,"CCC(O)C(C)C1OC1CC(C)(O)/C=C/C=C(\C)C1OC(=O)CC(O)CCC(C)(O)C(OC(=O)N2CCN(C3CCCCCC3)CC2)/C=C/C1C (stereo not drawn) [Amorphous powder, (8E,12E,14E)-7-{(4-cycloheptylpiperazin-1-yl)carbonyl}oxy-3,6,16,21-tetrahydroxy-6,10,12,16,20-pentamethyl-18,19-epoxytricosa-8,12,14-trien-11-olide]"
3,about 32 seconds,"CCC(O)C(C)C1OC1CC(C)(O)/C=C/C=C(\C)C1OC(=O)CC(O)CCC(C)(O)C(OC(=O)N2CCN(C3CCCCCC3)CC2)/C=C/C1C (stereo not drawn) [Crystals, (8E,12E,14E)-7-{(4-cycloheptylpiperazin-1-yl)carbonyl}oxy-3,6,16,21-tetrahydroxy-6,10,12,16,20-pentamethyl-18,19-epoxytricosa-8,12,14-trien-11-olide]"
